Measured values taken from patent US9255090B2, “Heterocyclyl derivatives and their use as prostaglandin D2 receptor modulators” (Actelion Pharmaceuticals Ltd., priority 2012, dated 2016).

Assays:
[1] = test system: eosinophils; assay: Eosinophil shape change assay with human plasma; assay type: cell-based; details: human plasma (50%), PGD2 100 nM activation, antagonistic activity
Excerpt: Eosinophil Shape Change Assay with Human Plasma
After obtaining informed consent, blood samples were drawn by venipuncture according to the protocol approved by the ethics committee of Basel, Switzerland. Polymorphonuclear leukocytes (containing eosinophils, basophils and neutrophils) were isolated using the Polymorphprep™ method (Axis-Shield). […] The polymorphonuclear cell fraction was harvested and depleted for erythrocytes by hypotonic saline lysis.
The polymorphonuclear cells were resuspended in assay buffer (1×PBS with Ca^2+/Mg^2+ supplemented with 0.1% BSA, 10 mM HEPES, and 10 mM Glucose, pH 7.4) at 5×10^6 cells/ml and stained with anti-CD49d-APC ((APC=Allophycocyanin) for 1 hour at RT. Test compounds, at various concentrations, were preincubated 10 min in human plasma (anticoagulated with a thrombin inhibitor). Then, human plasma was added to the polymorphonuclear cells to 50% of final assay volume with polymorphonuclear cells at 4×10^6 cells/ml. After incubation for 10 minutes at 37° C., the polymorphonuclear cells were activated for 5 min at 37° C. by addition of PGD2 at 100 nM final concentration. Activation was stopped by addition of 0.5 ml paraformaldehyde (1%).
Immediately after fixation with paraformaldehyde, the samples were analyzed by FACSCanto flow cytometer (BD Biosciences) and target cells were identified by their forward-scatter (FSC) and side-scatter (SSC) characteristics. Eosinophils were identified by the anti-CD49d-APC signal and their characteristic side-scatter (SSC) profile. Shape change responses, indicative of eosinophil activation, were quantified as the percent of cells with an increased forward-scatter.

[2] = target: hCRTH2 receptor (Homo sapiens (Human), UniProt Q9Y5Y4); assay: hCRTH2 receptor membranes radioligand (3H-PGD2) displacement assay; assay type: binding; details: 3H-PGD2 radioligand displacement, HEK293-hCRTH2 membranes
hCRTH2 receptor, sequence (Q9Y5Y4 whole entry): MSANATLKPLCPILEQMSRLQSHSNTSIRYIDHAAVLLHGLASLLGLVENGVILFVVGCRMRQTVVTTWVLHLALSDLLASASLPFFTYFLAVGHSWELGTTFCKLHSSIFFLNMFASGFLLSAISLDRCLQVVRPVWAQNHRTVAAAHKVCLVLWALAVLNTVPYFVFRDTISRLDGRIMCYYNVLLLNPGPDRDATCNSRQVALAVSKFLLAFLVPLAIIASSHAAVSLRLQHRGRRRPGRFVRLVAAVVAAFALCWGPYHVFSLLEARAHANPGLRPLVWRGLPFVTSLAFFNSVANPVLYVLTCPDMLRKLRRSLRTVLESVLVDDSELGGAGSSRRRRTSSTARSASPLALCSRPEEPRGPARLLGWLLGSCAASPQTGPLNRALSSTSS
Outline: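 HEK293-hCRTH2 membranes, 20 μg/well; 3H-PGD2 added at 2.5 nM; binding buffer 50 mM Tris, 10 mM MnCl2, 1 mM EDTA, pH 7.0; 90 min RT; GF/C filtration, scintillation count. Nonspecific binding: PGD2 at […].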

Compound | IC50 ([1]; Homo sapiens, Eosinophil) [nM] | IC50 [2] [nM] | IC50 [1] [nM]
COc1ccc(CC(=O)O)cc1-c1ccc(F)c2c1CN(C(=O)[C@@H]1C[C@H]1c1ccccc1)C2 (racemic) [Example 37, (±)-{3-[7-Fluoro-2-(trans-2-phenyl-cyclopropanecarbonyl)-2,3-dihydro-1H-isoindol-4-yl]-4-methoxy-phenyl}-acetic acid] | 289 |  | 
CCOc1cc(CC(=O)O)ccc1-c1ccc(F)c2c1CN(C(=O)OCc1ccc(F)cc1)CC2 [Example 404, 8-(4-Carboxymethyl-2-ethoxy-phenyl)-5-fluoro-3,4-dihydro-1H-isoquinoline-2-carboxylic acid 4-fluoro-benzyl ester] | 10 | 2.3 | 
COc1ccc(CC(=O)O)cc1-c1ccc(F)c2c1CN(C(=O)CC1CCCc3ccccc31)CC2 (racemic) [Example 263] | 64 | 4.9 | 
CS(=O)(=O)c1ccc(CC(=O)O)cc1-c1ccc(F)c2c1CN(C(=O)[C@@H]1C[C@H]1c1ccccc1)CC2 [Example 29, {3-[5-Fluoro-2-((1R,2R)-2-phenyl-cyclopropanecarbonyl)-1,2,3,4-tetrahydro-isoquinolin-8-yl]-4-methanesulfonyl-phenyl}-acetic acid] | 20 | 6.6 | 
CCOc1ccc(CC(=O)O)cc1-c1ccc(F)c2c1CN(C(=O)OCc1cc(F)ccc1F)CC2 [Example 401, 8-(5-Carboxymethyl-2-ethoxy-phenyl)-5-fluoro-3,4-dihydro-1H-isoquinoline-2-carboxylic acid 2,5-difluoro-benzyl ester] | 26 | 4.5 | 
COc1ccc(CC(=O)O)cc1-c1ccc(F)c2c1CN(C(=O)CC1CCc3ccccc31)CC2 (racemic) [Example 261] | 86 | 3.1 | 
CCCCOC(=O)N1CCc2c(F)ccc(-c3cc(CC(=O)O)ccc3OCC)c2C1 [Example 376, 8-(5-Carboxymethyl-2-ethoxy-phenyl)-5-fluoro-3,4-dihydro-1H-isoquinoline-2-carboxylic acid butyl ester] | 59 | 6.3 | 
CCOc1ccc(CC(=O)O)cc1-c1ccc(F)c2c1CN(C(=O)CC1COc3ccccc3C1)CC2 (racemic) [Example 332] | 15 | 11.8 | 
COc1ccc(CC(=O)O)cc1-c1cc(F)c(F)c2c1CN(C(=O)[C@@H]1C[C@H]1c1ccccc1)CC2 [Example 84, {3-[5,6-Difluoro-2-((1R,2R)-2-phenyl-cyclopropanecarbonyl)-1,2,3,4-tetrahydro-isoquinolin-8-yl]-4-methoxy-phenyl}-acetic acid] | 5 | 4.82 | 
CCOc1ccc(CC(=O)O)cc1-c1ccc(F)c2c1CN(C(=O)OCc1ncc(C)cc1F)CC2 [Example 366, 8-(5-Carboxymethyl-2-ethoxy-phenyl)-5-fluoro-3,4-dihydro-1H-isoquinoline-2-carboxylic acid 3-fluoro-5-methyl-pyridin-2-ylmethyl ester] | 65 | 4.2 | 
COc1ccc(CC(=O)O)cc1-c1ccc(F)c2c1CN(C(=O)[C@@H]1C[C@H]1c1cccc(F)c1)CC2 (racemic) [Example 48, (±)-(3-{5-Fluoro-2-[trans-2-(3-fluoro-phenyl)-cyclopropanecarbonyl]-1,2,3,4-tetrahydro-isoquinolin-8-yl}-4-methoxy-phenyl)-acetic acid] | 42 |  | 
CCOc1ccc(CC(=O)O)cc1-c1ccc(F)c2c1CN(C(=O)CC1COc3ccccc31)CC2 (centres unmarked) [Example 207, {3-[2-(2-2,3-Dihydro-benzofuran-3-yl-acetyl)-5-fluoro-1,2,3,4-tetrahydro-isoquinolin-8-yl]-4-ethoxy-phenyl}-acetic acid] |  |  | 15
COc1cc(CC(=O)O)ccc1-c1ccc(F)c2c1CN(C(=O)CC1CCOc3ccccc31)CC2 (centres unmarked) [Example 201, {4-[2-(2-Chroman-4-yl-acetyl)-5-fluoro-1,2,3,4-tetrahydro-isoquinolin-8-yl]-3-methoxy-phenyl}-acetic acid] |  |  | 31
COc1cc(CC(=O)O)ccc1-c1ccc(F)c2c1CN(C(=O)CC1CCOc3ccccc31)CC2 (racemic) [Example 359] | 28 |  | 
CCOc1ccc(CC(=O)O)cc1-c1ccc(F)c2c1CN(C(=O)CC1COc3ccccc31)CC2 (centres unmarked) [Example 208, {3-[2-(2-2,3-Dihydro-benzofuran-3-yl-acetyl)-5-fluoro-1,2,3,4-tetrahydro-isoquinolin-8-yl]-4-ethoxy-phenyl}-acetic acid] |  |  | 42
COc1cc(CC(=O)O)ccc1-c1ccc(F)c2c1CN(C(=O)CC1CCOc3ccccc31)CC2 (centres unmarked) [Example 200, {4-[2-(2-Chroman-4-yl-acetyl)-5-fluoro-1,2,3,4-tetrahydro-isoquinolin-8-yl]-3-methoxy-phenyl}-acetic acid] | 50 |  | 

Compound | IC50 ([1]; Homo sapiens, Eosinophil) [nM] | IC50 [2] [nM] | IC50 [1] [nM]
COc1ccc(CC(=O)O)cc1-c1ccc(F)c2c1CN(C(=O)[C@@H]1C[C@H]1c1cccc(F)c1)CC2 [Example 65, (3-{5-Fluoro-2-[(1R,2R)-2-(3-fluoro-phenyl)-cyclopropanecarbonyl]-1,2,3,4-tetrahydro-isoquinolin-8-yl}-4-methoxy-phenyl)-acetic acid] | 10 |  | 
CCOc1ccc(CC(=O)O)cc1-c1ccc(F)c2c1CN(C(=O)CC1COCc3ccccc31)CC2 (centres unmarked) [Example 210, {4-Ethoxy-3-[5-fluoro-2-(2-isochroman-4-yl-acetyl)-1,2,3,4-tetrahydro-isoquinolin-8-yl]-phenyl}-acetic acid] |  |  | 11
COc1ccc(CC(=O)O)cc1-c1ccc(F)c2c1CN(C(=O)CC1CC(C)(C)Oc3ccccc31)CC2 (racemic) [Example 240] | 31 |  | 
CCOc1ccc(CC(=O)O)cc1-c1ccc(F)c2c1CN(C(=O)CC1COCc3ccccc31)CC2 (centres unmarked) [Example 209, {4-Ethoxy-3-[5-fluoro-2-(2-isochroman-4-yl-acetyl)-1,2,3,4-tetrahydro-isoquinolin-8-yl]-phenyl}-acetic acid] | 13 |  | 
CCOc1ccc(CC(=O)O)cc1-c1ccc(F)c2c1CN(C(=O)CC1COCc3ccccc31)CC2 (racemic) [Example 228] | 8 |  | 
CCOc1ccc(CC(=O)O)cc1-c1ccc(F)c2c1CN(C(=O)CC1COc3ccccc31)CC2 (racemic) [Example 227] | 38 |  | 
COc1ccc(CC(=O)O)cc1-c1ccc(F)c2c1CN(C(=O)CC1OCc3ccccc31)CC2 (racemic) [Example 362] |  | 22.9 | 
COc1ccc(CC(=O)O)cc1-c1ccc(F)c2c1CN(C(=O)CC1(c3ccc(F)cc3)CCC1)CC2 [Example 251, [3-(5-Fluoro-2-{2-[1-(4-fluoro-phenyl)-cyclobutyl]-acetyl}-1,2,3,4-tetrahydro-isoquinolin-8-yl)-4-methoxy-phenyl]-acetic acid] |  | 414 | 
CC(C)Oc1cc(CC(=O)O)ccc1-c1ccc(F)c2c1CN(C(=O)CC1CCOc3ccccc31)CC2 (racemic) [Example 353] |  | 1.2 | 
CCOc1cc(CC(=O)O)ccc1-c1ccc(F)c2c1CN(C(=O)/C=C/c1ccccn1)CC2 [Example 338, {3-Ethoxy-4-[5-fluoro-2-((E)-3-pyridin-2-yl-acryloyl)-1,2,3,4-tetrahydro-isoquinolin-8-yl]-phenyl}-acetic acid] |  | 2.3 | 
CCC(Oc1ccc(OC)c(-c2ccc(F)c3c2CN(C(=O)OCc2ccccc2)CC3)c1)C(=O)O (racemic) [Example 415] |  | 337 | 
CC(C)Oc1cc(CC(=O)O)ccc1-c1ccc(F)c2c1CN(C(=O)[C@@H]1C[C@H]1c1ccccc1)CC2 [Example 357, {4-[5-Fluoro-2-((1R,2R)-2-phenyl-cyclopropanecarbonyl)-1,2,3,4-tetrahydro-isoquinolin-8-yl]-3-isopropoxy-phenyl}-acetic acid] |  | 1.6 | 
COc1ccc(CC(=O)O)cc1-c1ccc(F)c2c1CN(C(=O)CC1CCCCC1)CC2 [Example 127, {3-[2-(2-Cyclohexyl-acetyl)-5-fluoro-1,2,3,4-tetrahydro-isoquinolin-8-yl]-4-methoxy-phenyl}-acetic acid] |  | 176 | 
COc1ccc(CC(=O)O)cc1-c1ccc(F)c2c1CN(C(=O)C1CCc3ccccc31)CC2 (racemic) [Example 112, (±)-{3-[5-Fluoro-2-(indane-1-carbonyl)-1,2,3,4-tetrahydro-isoquinolin-8-yl]-4-methoxy-phenyl}-acetic acid] |  | 202 | 
CCOc1cc(CC(=O)O)ccc1-c1ccc(F)c2c1CN(C(=O)OCc1ccccn1)CC2 [Example 395, 8-(4-Carboxymethyl-2-ethoxy-phenyl)-5-fluoro-3,4-dihydro-1H-isoquinoline-2-carboxylic acid pyridin-2-ylmethyl ester] |  | 3.7 | 
CCOc1cc(CC(=O)O)ccc1-c1ccc(F)c2c1CN(C(=O)CCc1ncccc1OC)CC2 [Example 314, (3-Ethoxy-4-{5-fluoro-2-[3-(3-methoxy-pyridin-2-yl)-propionyl]-1,2,3,4-tetrahydro-isoquinolin-8-yl}-phenyl)-acetic acid] |  | 46.1 | 
